Test results taken from patent publication US8546386B2, “Corrosion and microbial control in hydrocarbonaceous compositions” (Dow Global Technologies LLC, priority 2008, dated 2013).

Columns and labels:
Format in all cases: cell-based
[1] = tested on: Hormoconis resinae ATCC#20495; assay: Microbial testing in biodiesel fuel, plate count; conditions: no biocide
[2] = tested on: Pseudomonas aeruginosa ATCC#33988; assay: Microbial testing in biodiesel fuel, plate count; conditions: no biocide
[3] = tested on: Hormoconis resinae ATCC#20495; assay: Microbial testing in diesel fuel, plate count
[4] = tested on: Yarrowia tropicalis ATCC#48138; assay: Microbial testing in diesel fuel, plate count
[5] = tested on: Pseudomonas aeruginosa ATCC#33988; assay: Microbial testing in diesel fuel, plate count
[6] = amino alcohol 1500 ppm + FS 135 ppm, Day 0
[7] = amino alcohol 1500 ppm + FS 135 ppm, Wk 1
[8] = amino alcohol 1500 ppm + FS 135 ppm, Wk 2
[9] = amino alcohol 1500 ppm + FS 135 ppm, Wk 3
[10] = amino alcohol 1500 ppm + FS 135 ppm, Wk 4
[11] = amino alcohol 1500 ppm + FS 1000 ppm, Day 0
[12] = amino alcohol 1500 ppm + FS 1000 ppm, Wk 1
[13] = amino alcohol 1500 ppm + FS 1000 ppm, Wk 2
[14] = amino alcohol 1500 ppm + FS 1000 ppm, Wk 3
[15] = amino alcohol 1500 ppm + FS 1000 ppm, Wk 4
[16] = amino alcohol 1500 ppm, no biocide, Day 0
[17] = amino alcohol 1500 ppm, no biocide, Wk 1
[18] = amino alcohol 1500 ppm, no biocide, Wk 2
[19] = amino alcohol 1500 ppm, no biocide, Wk 3
[20] = amino alcohol 1500 ppm, no biocide, Wk 4
[21] = amino alcohol 3000 ppm + FS 135 ppm, Day 0
[22] = amino alcohol 3000 ppm + FS 135 ppm, Wk 1
[23] = amino alcohol 3000 ppm + FS 135 ppm, Wk 2
[24] = amino alcohol 3000 ppm + FS 135 ppm, Wk 3
[25] = amino alcohol 3000 ppm + FS 135 ppm, Wk 4
[26] = amino alcohol 3000 ppm + FS 1000 ppm, Day 0
[27] = amino alcohol 3000 ppm + FS 1000 ppm, Wk 1
[28] = amino alcohol 3000 ppm + FS 1000 ppm, Wk 2
[29] = amino alcohol 3000 ppm + FS 1000 ppm, Wk 3
[30] = amino alcohol 3000 ppm + FS 1000 ppm, Wk 4
[31] = amino alcohol 3000 ppm, no biocide, Day 0
[32] = amino alcohol 3000 ppm, no biocide, Wk 1
[33] = amino alcohol 3000 ppm, no biocide, Wk 2
[34] = amino alcohol 3000 ppm, no biocide, Wk 3
[35] = amino alcohol 3000 ppm, no biocide, Wk 4

CCCCCCCC/C=C\CCCCCCCC(=O)O.OCCN(CCO)CCO [TEA/Oleic]
Mold (H. resinae) count ([1]; additive 500 ppm, Week 1): 8.20E+04 Mold/ml
Mold (H. resinae) count ([1]; additive 500 ppm, Week 2): 3.70E+05 Mold/ml
Mold (H. resinae) count ([1]; additive 500 ppm, Week 3): 4.30E+05 Mold/ml
Mold (H. resinae) count ([1]; additive 500 ppm, Week 4): 6.20E+05 Mold/ml
Mold (H. resinae) count ([1]; additive 1500 ppm, Week 1): 3.70E+02 Mold/ml
Mold (H. resinae) count ([1]; additive 1500 ppm, Week 2): 1.30E+04 Mold/ml
Mold (H. resinae) count ([1]; additive 1500 ppm, Week 3): 2.00E+04 Mold/ml
Mold (H. resinae) count ([1]; additive 1500 ppm, Week 4): 4.70E+03 Mold/ml
Bacteria (Ps. aeruginosa) count ([2]; additive 500 ppm, Week 1): 7.30E+04 Bact/ml
Bacteria (Ps. aeruginosa) count ([2]; additive 500 ppm, Week 2): 5.00E+05 Bact/ml
Bacteria (Ps. aeruginosa) count ([2]; additive 500 ppm, Week 3): 1.20E+06 Bact/ml
Bacteria (Ps. aeruginosa) count ([2]; additive 500 ppm, Week 4): 1.10E+06 Bact/ml
Bacteria (Ps. aeruginosa) count ([2]; additive 1500 ppm, Week 1): 2.00E+03 Bact/ml
Bacteria (Ps. aeruginosa) count ([2]; additive 1500 ppm, Week 2): 9.00E+04 Bact/ml
Bacteria (Ps. aeruginosa) count ([2]; additive 1500 ppm, Week 3): 2.20E+05 Bact/ml
Bacteria (Ps. aeruginosa) count ([2]; additive 1500 ppm, Week 4): 8.30E+04 Bact/ml

CC(C)(N)CO [AMP, 2-amino-2-methyl-1-propanol]
H. resinae organism count [3, 6]: 5.3E5
H. resinae organism count [3, 7]: 6.7E4
H. resinae organism count [3, 8]: 1.3E4
H. resinae organism count [3, 9]: 5.8E3
H. resinae organism count [3, 10]: 4.7E3
H. resinae organism count [3, 11]: 5.3E5
H. resinae organism count [3, 12]: 9.2E2
H. resinae organism count [3, 13]: <10
H. resinae organism count [3, 14]: <10
H. resinae organism count [3, 15]: <10
H. resinae organism count [3, 16]: 5.3E5
H. resinae organism count [3, 17]: 2.0E5
H. resinae organism count [3, 18]: 5.8E5
H. resinae organism count [3, 19]: 8.1E5
H. resinae organism count [3, 20]: 7.2E5
H. resinae organism count [3, 21]: 5.3E5
H. resinae organism count [3, 22]: 5.7E4
H. resinae organism count [3, 23]: 8.6E3
H. resinae organism count [3, 24]: 7.6E3
H. resinae organism count [3, 25]: 5.8E3
H. resinae organism count [3, 26]: 5.3E5
H. resinae organism count [3, 27]: 7.0E3
H. resinae organism count [3, 28]: <10
H. resinae organism count [3, 29]: <10
H. resinae organism count [3, 30]: <10
H. resinae organism count [3, 31]: 5.3E5
H. resinae organism count [3, 32]: 3.6E5
H. resinae organism count [3, 33]: 7.3E5
H. resinae organism count [3, 34]: 1.1E6
H. resinae organism count [3, 35]: 2.3E6
Y. tropicalis organism count [4, 6]: 2.8E5
Y. tropicalis organism count [4, 7]: 8.2E4
Y. tropicalis organism count [4, 8]: 5.6E4
Y. tropicalis organism count [4, 9]: 9.0E3
Y. tropicalis organism count [4, 10]: 5.9E3
Y. tropicalis organism count [4, 11]: 2.8E5
Y. tropicalis organism count [4, 12]: 5.2E2
Y. tropicalis organism count [4, 13]: <10
Y. tropicalis organism count [4, 14]: <10
Y. tropicalis organism count [4, 15]: <10
Y. tropicalis organism count [4, 16]: 2.8E5
Y. tropicalis organism count [4, 17]: 3.4E5
Y. tropicalis organism count [4, 18]: 6.2E5
Y. tropicalis organism count [4, 19]: 8.0E6
Y. tropicalis organism count [4, 20]: 4.3E6
Y. tropicalis organism count [4, 21]: 2.8E5
Y. tropicalis organism count [4, 22]: 5.8E4
Y. tropicalis organism count [4, 23]: 9.4E3
Y. tropicalis organism count [4, 24]: 4.8E3
Y. tropicalis organism count [4, 25]: 5.0E3
Y. tropicalis organism count [4, 26]: 2.8E5
Y. tropicalis organism count [4, 27]: 9.4E2
Y. tropicalis organism count [4, 28]: <10
Y. tropicalis organism count [4, 29]: <10
Y. tropicalis organism count [4, 30]: <10
Y. tropicalis organism count [4, 31]: 2.8E5
Y. tropicalis organism count [4, 32]: 1.6E5
Y. tropicalis organism count [4, 33]: 5.7E5
Y. tropicalis organism count [4, 34]: 6.8E5
Y. tropicalis organism count [4, 35]: 2.0E6
Ps. aeruginosa organism count [5, 6]: 3.7E6
Ps. aeruginosa organism count [5, 7]: 4.3E5
Ps. aeruginosa organism count [5, 8]: 9.0E4
Ps. aeruginosa organism count [5, 9]: 1.4E4
Ps. aeruginosa organism count [5, 10]: 8.2E3
Ps. aeruginosa organism count [5, 11]: 3.7E6
Ps. aeruginosa organism count [5, 12]: 1.4E2
Ps. aeruginosa organism count [5, 13]: <10
Ps. aeruginosa organism count [5, 14]: <10
Ps. aeruginosa organism count [5, 15]: <10
Ps. aeruginosa organism count [5, 16]: 3.7E6
Ps. aeruginosa organism count [5, 17]: 2.1E6
Ps. aeruginosa organism count [5, 18]: 5.0E6
Ps. aeruginosa organism count [5, 19]: 1.0E6
Ps. aeruginosa organism count [5, 20]: 6.8E6
Ps. aeruginosa organism count [5, 21]: 3.7E6
Ps. aeruginosa organism count [5, 22]: 7.0E5
Ps. aeruginosa organism count [5, 23]: 6.8E4
Ps. aeruginosa organism count [5, 24]: 1.6E4
Ps. aeruginosa organism count [5, 25]: 1.1E4
Ps. aeruginosa organism count [5, 26]: 3.7E6
Ps. aeruginosa organism count [5, 27]: <10
Ps. aeruginosa organism count [5, 28]: <10
Ps. aeruginosa organism count [5, 29]: <10
Ps. aeruginosa organism count [5, 30]: <10
Ps. aeruginosa organism count [5, 31]: 3.7E6
Ps. aeruginosa organism count [5, 32]: 8.6E5
Ps. aeruginosa organism count [5, 33]: 4.0E6
Ps. aeruginosa organism count [5, 34]: 7.8E6
Ps. aeruginosa organism count [5, 35]: 7.2E6
